Reference: patent US11178823B2, “Systems and methods for using light energy to facilitate penetration of substances in plants” (priority 2014, dated 2021)

Key:
[1] = Uptake and phloem movement of fluorescent test substances applied onto lased citrus leaves (fluorescent microscopy); assay type: in vivo
Description: To illustrate the effectiveness of the methods disclosed herein, a test substance was used to show the enhanced penetration through foliar application. Among test substances, phloem mobile compounds NBDG, a fluorescent analog of glucose (a natural sugar found in plants), and carboxyfluorescin-SE (a membrane permeable substance only fluorescent in live cells) were used in an experiment. Both substances were manually applied onto lased leaves (using a 13×39 dot indentation pattern 801) at a concentration of 5 mg/mL.
FIGS. 8A-8B were observed under fluorescent microscopy and FIG. 8B was taken 10 minutes after the application of 5 μL of NBDG.
Within 2 h, fluorescent NBDG was observed within the lateral veins of the lased leaves (shown in FIGS. 9A-9B) emerging from the application area. FIGS. 9A-9B are fluorescent micrographs of a portion of a lased citrus leaf. […] FIG. 9B is another image showing the NBDG in a minor veins 903 and main vein 905.
It should be appreciated that movement of the foliarly applied NBDG continued down the stem and towards the roots. […] FIGS. 11A-11B show bark sections of young trees. […] The distance between the lased leaves and bark segment 1103 was approximately 20 cm.

HLB bacteria = test: PCR analysis for presence of HLB in leaves of lased and antimicrobial-treated citrus trees; assay type: in vivo; details: 2 fluid ounces per tree, 0-29 = HLB detected, 30 and above = no HLB detected; for Presence of HLB using PCR analysis, Sample A: lased and treated leaves; for Presence of HLB using PCR analysis, Sample B: leaves at furthest point from lased leaves, not lased or treated
Method: The following experimental data is provided to exemplarily illustrate various aspects of the inventive subject matter presented herein. More specifically, the data illustrates the surprising uptake of antimicrobials to effectively treat a plant. Citrus trees were tested in three groups consisting of a control group (trees 1-6), an antimicrobial plus surfactant group (trees 7-12), and an antimicrobial only group (trees 13-18). The trees in each group were lased and, in some instances, treated with an antimicrobial, and analyzed two weeks later to determine the amount of HLB present in the tree using Polymerase Chain Reaction (“PCR”) analysis. It should be noted that all the trees in this experiment had HLB at the beginning of the experiment. The antimicrobial used was oxytetracycline (FireLine™) that includes a surfactant (Tactit) for the antimicrobial plus surfactant group, and oxytetracycline without a surfactant for the antimicrobial only group. The laser parameters included a jump speed of 2000 mm/s, marking speed 850 mm/s, and marking intensity: 70%, and a pulse frequency of 15000 Hz.
The control group (trees 1-6) was lased, but not treated with any antimicrobials and/or surfactants. With the exception of one tree (tree 7) that was only lased, the antimicrobial plus surfactant group was lased and treated with an antimicrobial that comprised a surfactant. With the exception of one tree (tree 13) that was only lased, the antimicrobial only group was lased and treated with only an antimicrobial (with no surfactant). The trees in each group were lased on only one side of the tree (the side comprising the “A” samples). If an antimicrobial (with or without surfactant) was applied, such antimicrobial was applied to the side of the tree that was lased. The antimicrobials were prepared at 200 ppm, 500 ppm, 1000 ppm, 1500 ppm, and 2000 ppm in a 1 gallon volume. Only 2 fluid ounces per tree (10 fluid ounces per group of trees) was used of each concentration for this experiment.
After two weeks, leaves that were lased and, in some instances, treated with an antimicrobial were sampled and analyzed. Additionally, leaves located at the furthest point from the lased leaves (the side comprising the “B” samples), which were not directly lased and/or treated, were sampled and analyzed. Leaves were grinded and prepared for PCR analysis for detecting the presence of HLB. PCR determines if there is live HLB DNA. PCR analysis amplifies and copies small segments of DNA. It then yields enough sample DNA to run the analysis. With this experiment there are six trees per treatment group (control group, antimicrobial plus surfactant group, and antimicrobial only group). Each tree falls under two ranges for determining HLB content, values 29 and lower are considered HLB positive (greening) and values 30 and over are trees considered HLB negative (non-greening). If the analysis takes over 30 PCR cycles then it cannot find any target HLB DNA. If the analysis runs against the maximum of 40 PCR cycles then it becomes indeterminate and it could not find one copy of HLB. It should be noted that there could be numbers over “30” but still be no presence of HLB because there are only artifacts of dead HLB bacteria DNA in numbers over “30”.

[2] = 200 ppm, without surfactant, tree 14, two weeks
[3] = 500 ppm, without surfactant, tree 15, two weeks
[4] = 1000 ppm, without surfactant, tree 16, two weeks
[5] = 2000 ppm, with surfactant (Tactit), tree 12, two weeks

SMILES: O=[N+]([O-])c1ccc(N[C@H]2C(O)O[C@H](CO)[C@@H](O)[C@@H]2O)c2nonc12 (stereo partly shown) [NBDG]
- Uptake into un-lased control leaf (fluorescence) ([1]; applied to the surface of un-lased leaves): no fluorescence
- Time until fluorescence observed in the phloem of bark tissue ([1]; bark approximately 20 cm from the treated lased leaf, young trees): ≤ 8 h
- Time until fluorescence observed within the lateral veins of the lased leaves ([1]; lased citrus leaf, 5 mg/mL, emerging from the application area): ≤ 2 h
- Movement in the leaf four hours after application ([1]; lased citrus leaf, 5 mg/mL, four hours after application): reached and passed the base of the petiole
- Uptake into lased leaf (fluorescence) ([1]; lased citrus leaf, 13×39 dot indentation pattern, 5 mg/mL, 5 μL, 10 minutes after application): spread of fluorescence within the lased area

SMILES: CN(C)[C@@H]1C(O)=C(C(N)=O)C(=O)[C@@]2(O)C(O)=C3C(=O)c4c(O)cccc4[C@@](C)(O)[C@H]3[C@H](O)[C@@H]12 [oxytetracycline]
- Presence of HLB using PCR analysis, Sample A (HLB bacteria; 200 ppm, with surfactant (Tactit), tree 8, two weeks after treatment): 30.6
- Presence of HLB using PCR analysis, Sample B (HLB bacteria; 200 ppm, with surfactant (Tactit), tree 8, two weeks): 33.5
- Presence of HLB using PCR analysis, Sample A (HLB bacteria; [2]): 27.0
- Presence of HLB using PCR analysis, Sample B (HLB bacteria; [2]): 26.1
- Presence of HLB using PCR analysis, Sample A (HLB bacteria; 500 ppm, with surfactant (Tactit), tree 9, two weeks): 35.4
- Presence of HLB using PCR analysis, Sample A (HLB bacteria; [3]): 34.7
- Presence of HLB using PCR analysis, Sample B (HLB bacteria; [3]): 26.6
- Presence of HLB using PCR analysis, Sample A (HLB bacteria; [4]): 37.8
- Presence of HLB using PCR analysis, Sample B (HLB bacteria; [4]): 28.7
- Presence of HLB using PCR analysis, Sample B (HLB bacteria; 1500 ppm, with surfactant (Tactit), tree 11, two weeks): 36.8
- Presence of HLB using PCR analysis, Sample B (HLB bacteria; 1500 ppm, without surfactant, tree 17, two weeks): 26.2
- Presence of HLB using PCR analysis, Sample A (HLB bacteria; [5]): 37.6
- Presence of HLB using PCR analysis, Sample B (HLB bacteria; [5]): 36.1
- Presence of HLB using PCR analysis, Sample B (HLB bacteria; 2000 ppm, without surfactant, tree 18, two weeks): 27.6
